What is called IC50 is the midpoint of a concentration-inhibition curve.

Proto-oncogene tyrosine-protein kinase Src (SRC), sequence (P12931 2-536): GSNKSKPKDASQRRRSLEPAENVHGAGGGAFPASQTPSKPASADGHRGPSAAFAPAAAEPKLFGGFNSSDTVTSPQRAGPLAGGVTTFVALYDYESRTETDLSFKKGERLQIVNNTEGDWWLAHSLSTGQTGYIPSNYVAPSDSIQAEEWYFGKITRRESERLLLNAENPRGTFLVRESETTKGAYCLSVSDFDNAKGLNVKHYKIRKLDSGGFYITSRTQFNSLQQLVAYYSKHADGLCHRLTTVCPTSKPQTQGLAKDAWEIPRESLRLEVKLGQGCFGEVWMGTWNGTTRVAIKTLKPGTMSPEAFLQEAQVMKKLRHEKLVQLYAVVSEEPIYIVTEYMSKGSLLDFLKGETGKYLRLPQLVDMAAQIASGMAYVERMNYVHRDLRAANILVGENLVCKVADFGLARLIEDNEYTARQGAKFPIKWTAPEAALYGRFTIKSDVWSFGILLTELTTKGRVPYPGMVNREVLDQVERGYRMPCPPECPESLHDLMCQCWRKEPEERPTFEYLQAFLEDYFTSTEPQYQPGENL

The assay concerns the target Proto-oncogene tyrosine-protein kinase Src (SRC) (Homo sapiens, UniProt P12931). The experiment in a line: mobility shift kinase assay. The class given is biochemical.
On to `CC1(C)CC[C@]2(C(=O)O)CC[C@]3(C)C(=CC[C@@H]4[C@@]5(C)CC[C@H](O)C(C)(C)[C@@H]5CC[C@]43C)[C@@H]2C1` [compound 116, oleanolic acid], for which the IC50 is 29.9 µM.
Next, `CC1(C)CC[C@]2(C(=O)O)CC[C@]3(C)C(=CC[C@@H]4[C@@]5(C)C[C@@H](O)[C@H](O)C(C)(C)[C@@H]5CC[C@]43C)[C@@H]2C1` [compound 102, crataegolic acid]: 26.9 µM; `C[C@@H]1CC[C@]2(C(=O)O)CC[C@]3(C)C(=CC[C@@H]4[C@@]5(C)C[C@@H](O)[C@@H](O)C(C)(C)[C@@H]5CC[C@]43C)[C@@H]2[C@]1(C)O` [compound 99, 2α,3α,19α-trihydroxyurs-12-en-28-oic acid]: 22.5 µM.

For the origin of these results see article PMC12219075 (Scientific Reports, 2025).
